Source: ChEMBL document CHEMBL1124693, “Synthesis of the novel pi-(benzyloxymethyl)-protected histidine analogue of statine. Inhibition of penicillopepsin by pepstatin-derived peptides containing different statine side-chain derivatives” (J Med Chem, 1989)

The compounds below were run on Penicillopepsin (Penicillium janthinellum) (assay: Slow binding kinetics after pre-incubation of enzyme and inhibitor for 10 min before substrate addition;+ indicates weak inhibition of penicillopepsin.).
For `COC(=O)C[C@H](O)[C@H](Cc1c[nH]cn1)NC(=O)[C@@H](NC(=O)[C@@H](NC(=O)CC(C)C)C(C)C)C(C)C`, the Slow binding was “weak inhibition of porcine pepsin”.

These compounds were tested on Penicillopepsin (Penicillium janthinellum) (assay: Inhibitory activity against pencillopepsin).
With `CCOC(=O)C[C@H](O)[C@H](CC(C)C)NC(=O)[C@H](NC(=O)[C@@H](NC(=O)CC(C)C)C(C)C)C(C)C` the Ki was over 18000 nM. In the case of `CCOC(=O)C[C@H](O)[C@H](Cc1ccccc1)NC(=O)[C@@H](NC(=O)[C@@H](NC(=O)CC(C)C)C(C)C)C(C)C`, the Ki is reported as 15 nM. `CCOC(=O)C[C@H](O)[C@H](CC(C)C)NC(=O)[C@@H](NC(=O)[C@@H](NC(=O)CC(C)C)C(C)C)C(C)C` was tested, and the Ki was 72 nM. `COC(=O)C[C@H](O)[C@H](Cc1c[nH]cn1)NC(=O)[C@@H](NC(=O)[C@@H](NC(=O)CC(C)C)C(C)C)C(C)C` was tested, and the Ki was 4.5 nM. Compound `CCOC(=O)C[C@H](O)[C@H](CCCN)NC(=O)[C@@H](NC(=O)[C@@H](NC(=O)CC(C)C)C(C)C)C(C)C` has a Ki of 1.1 nM.
